Series [1] relates to Liver cytosol. As to the kind of experiment: Drug metabolism in human liver cytosol treated with 20 uM assessed as compound formation in presence of NADPH generating system by LC-MS/MS/FSA method. In kind it is ADME.
Series [2] addresses T1, Aldo-keto reductase family 1 member C2 (Homo sapiens, UniProt P52895).
T1 sequence (P52895 whole entry): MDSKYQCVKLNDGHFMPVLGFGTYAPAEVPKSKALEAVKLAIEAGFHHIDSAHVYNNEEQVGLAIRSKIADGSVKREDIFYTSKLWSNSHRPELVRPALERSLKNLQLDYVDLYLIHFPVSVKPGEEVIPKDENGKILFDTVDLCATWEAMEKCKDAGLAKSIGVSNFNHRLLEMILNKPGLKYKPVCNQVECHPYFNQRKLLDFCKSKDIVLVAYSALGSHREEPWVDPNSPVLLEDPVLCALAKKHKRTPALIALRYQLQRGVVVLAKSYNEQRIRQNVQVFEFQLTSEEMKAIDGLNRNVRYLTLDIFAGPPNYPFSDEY
In words: Drug metabolism in human recombinant AKR1C2 expressing HEK293 cells treated with 20 uM boceprevir assessed as 100 uM flufenamic acid-mediated inhibition of AKR1C2-mediated metabolite formation after 120 mins in presence of NADPH by LC-MS/MS/FSA method. Further details: interact cpd dose 100 uM. It is filed as ADME, cell-based. The following applies: hek293, 2 h.

The target of series [3] is T1, Aldo-keto reductase family 1 member C2. In words: Drug metabolism in human recombinant AKR1C2 expressing HEK293 cells treated with 20 uM boceprevir assessed as 100 uM diazepam-mediated inhibition of AKR1C2-mediated metabolite formation after 120 mins in presence of NADPH by LC-MS/MS/FSA method. It is filed as ADME, cell-based. On the set-up: interact cpd dose 100 uM. The conditions noted are these: hek293, 2 h.

Series [4] addresses T2, Aldo-keto reductase family 1 member C3 (Homo sapiens, UniProt P42330).
T2 sequence (P42330 whole entry): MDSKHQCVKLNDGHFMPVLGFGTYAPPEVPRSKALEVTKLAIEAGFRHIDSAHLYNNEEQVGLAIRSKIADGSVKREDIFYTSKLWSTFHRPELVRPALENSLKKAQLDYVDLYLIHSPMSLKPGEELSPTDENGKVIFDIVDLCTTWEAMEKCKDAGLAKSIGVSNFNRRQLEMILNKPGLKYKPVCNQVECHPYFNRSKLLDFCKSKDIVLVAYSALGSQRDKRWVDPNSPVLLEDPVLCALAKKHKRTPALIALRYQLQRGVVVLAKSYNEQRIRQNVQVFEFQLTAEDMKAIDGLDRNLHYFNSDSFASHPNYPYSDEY
In words: Drug metabolism in human recombinant […] HEK293 cells treated with 20 uM boceprevir assessed as 1 mM ibuprofen-mediated inhibition of AKR1C3-mediated metabolite formation after 120 mins in presence of NADPH by LC-MS/MS/FSA method. The following applies: hek293, 2 h. It is filed as ADME, cell-based. On the set-up: interact cpd dose 1 mM.

Series [5] relates to Liver cytosol. In words: Drug metabolism in human liver cytosol at 20 uM assessed as (1R,2S,5S)-N-((2R,3R)-4-amino-1-cyclobutyl-3-hydroxy-4-oxobutan-2-yl)-3-((S)-2-(3-tert-butylureido)-3,3-dimethylbutanoyl)-6,6-dimethyl-3-azabicyclo[3.1.0]hexane-2-carboxamide formation at 20 uM after 60 mins in presence of AKR inhibitor ibuprofen by LC-MS/MS/FSA method. In kind it is ADME. The following applies: 1 h.

In series [6] the test system is Liver cytosol. In words: Drug metabolism in human liver cytosol at 20 uM assessed as (1R,2S,5S)-N-((2R,3R)-4-amino-1-cyclobutyl-3-hydroxy-4-oxobutan-2-yl)-3-((S)-2-(3-tert-butylureido)-3,3-dimethylbutanoyl)-6,6-dimethyl-3-azabicyclo[3.1.0]hexane-2-carboxamide formation in presence of flufenamic acid by LC-MS/MS/FSA method. In kind it is ADME.
The subject of series [7] is Liver cytosol. In words: Drug metabolism in human liver cytosol at 20 uM assessed as (1R,2S,5S)-N-((2S,3R)-4-amino-1-cyclobutyl-3-hydroxy-4-oxobutan-2-yl)-3-((S)-2-(3-tert-butylureido)-3,3-dimethylbutanoyl)-6,6-dimethyl-3-azabicyclo[3.1.0]hexane-2-carboxamide formation in presence of flufenamic acid by LC-MS/MS/FSA method. In kind it is ADME.
For series [8], the system named is Liver cytosol. As to the kind of experiment: Drug metabolism in human liver cytosol at 20 uM assessed as (1R,2S,5S)-N-((2S,3R)-4-amino-1-cyclobutyl-3-hydroxy-4-oxobutan-2-yl)-3-((S)-2-(3-tert-butylureido)-3,3-dimethylbutanoyl)-6,6-dimethyl-3-azabicyclo[3.1.0]hexane-2-carboxamide formation at 20 uM after 60 mins in presence of pre-incubation with ritonavir by LC-MS/MS/FSA method. It is filed as ADME. The conditions noted are these: 1 h.

Series [9] addresses T3, Aldo-keto reductase family 1 member C4 (Homo sapiens, UniProt P17516).
T3 sequence (P17516 whole entry): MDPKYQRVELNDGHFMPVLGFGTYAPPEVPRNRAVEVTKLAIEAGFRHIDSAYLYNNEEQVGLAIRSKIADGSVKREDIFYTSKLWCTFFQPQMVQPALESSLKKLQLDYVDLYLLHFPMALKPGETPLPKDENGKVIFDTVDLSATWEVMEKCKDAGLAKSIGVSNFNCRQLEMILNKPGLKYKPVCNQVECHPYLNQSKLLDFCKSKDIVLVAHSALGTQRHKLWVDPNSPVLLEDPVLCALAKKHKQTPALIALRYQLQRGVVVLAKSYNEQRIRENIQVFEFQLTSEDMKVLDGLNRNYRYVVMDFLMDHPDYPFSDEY
As to the kind of experiment: Activity of human recombinant AKR1C4 expressed in HEK293 cells assessed as (1R,2S,5S)-N-((2S,3R)-4-amino-1-cyclobutyl-3-hydroxy-4-oxobutan-2-yl)-3-((S)-2-(3-tert-butylureido)-3,3-dimethylbutanoyl)-6,6-dimethyl-3-azabicyclo[3.1.0]hexane-2-carboxamide formation per mg protein after 120 mins in presence of NADPH by LC-MS/MS/FSA method. The conditions noted are these: hek293, 2 h. In kind it is ADME, cell-based.

The test system of series [10] is Liver cytosol. In words: Drug metabolism in human liver cytosol at 20 uM assessed as (1R,2S,5S)-N-((2S,3R)-4-amino-1-cyclobutyl-3-hydroxy-4-oxobutan-2-yl)-3-((S)-2-(3-tert-butylureido)-3,3-dimethylbutanoyl)-6,6-dimethyl-3-azabicyclo[3.1.0]hexane-2-carboxamide formation in presence of pargyline by LC-MS/MS/FSA method. It is filed as ADME.
In series [11] the test system is Liver cytosol. As to the kind of experiment: Drug metabolism in human liver cytosol at 20 uM assessed as (1R,2S,5S)-N-((2S,3R)-4-amino-1-cyclobutyl-3-hydroxy-4-oxobutan-2-yl)-3-((S)-2-(3-tert-butylureido)-3,3-dimethylbutanoyl)-6,6-dimethyl-3-azabicyclo[3.1.0]hexane-2-carboxamide formation at 20 uM after 60 mins in presence of co-incubation with ritonavir by LC-MS/MS/FSA method. It is filed as ADME. The following applies: 1 h.

Series [12] is described as follows: Drug metabolism in human liver S9 fraction at 20 uM assessed as (1R,2S,5S)-N-((2S,3R)-4-amino-1-cyclobutyl-3-hydroxy-4-oxobutan-2-yl)-3-((S)-2-(3-tert-butylureido)-3,3-dimethylbutanoyl)-6,6-dimethyl-3-azabicyclo[3.1.0]hexane-2-carboxamide formation in presence of flufenamic acid by LC-MS/MS/FSA method. It is filed as ADME, subcellular. The following applies: s9, 20 µM.

Series [13] has as its system Liver cytosol. In words: Drug metabolism in human liver cytosol at 20 uM assessed as (1R,2S,5S)-N-((2S,3R)-4-amino-1-cyclobutyl-3-hydroxy-4-oxobutan-2-yl)-3-((S)-2-(3-tert-butylureido)-3,3-dimethylbutanoyl)-6,6-dimethyl-3-azabicyclo[3.1.0]hexane-2-carboxamide formation at 20 uM after 60 mins in presence of ketoconazole by LC-MS/MS/FSA method. In kind it is ADME. The following applies: 1 h.

For `CC(C)(C)NC(=O)N[C@H](C(=O)N1C[C@H]2[C@@H]([C@H]1C(=O)N[C@@H](CC1CCC1)[C@@H](O)C(N)=O)C2(C)C)C(C)(C)C`, the Compound recovery in [1] is given as 68%. For the same compound, the “inhibition (INH)” value was more than 89% in series [2], more than 89% in series [3] and 55% in series [4].
`CC(C)(C)NC(=O)N[C@H](C(=O)N1C[C@H]2[C@@H]([C@H]1C(=O)N[C@H](CC1CCC1)C(=O)C(N)=O)C2(C)C)C(C)(C)C`: the Compound recovery result in series [5] and in [6] was “metabolite_not_detected” throughout.
Take `CC(C)(C)NC(=O)N[C@H](C(=O)N1C[C@H]2[C@@H]([C@H]1C(=O)NC(CC1CCC1)C(=O)C(N)=O)C2(C)C)C(C)(C)C` (stereo partly drawn) [BOCEPREVIR]: the Compound recovery result in [7] is reported as “metabolite_not_detected”; in series [8], “metabolite_detected”; in series [9] it was “metabolite_not_detected”; in series [10], “metabolite_detected”; in series [11], “metabolite_detected”; in series [12], “metabolite_not_detected”. Also, the Compound recovery entry in series [13] is given as “metabolite_detected”.

Source of the values: ChEMBL document CHEMBL3526141, “Characterization of human liver enzymes involved in the biotransformation of boceprevir, a hepatitis C virus protease inhibitor” (Drug Metab Dispos, 2011).
